“And” between values parts separate entries of the source, which are not always exact repeats. Identical values can stand only once.
Legend:
[1] = tested on: uterus; assay: Wet uterine weight in ovariectomized rats (four day dosing); type: in vivo, female Sprague Dawley rats
Method: (§1) In the examples illustrating the methods, a post-menopausal model was used in which effects of different treatments upon various biological parameters were determined, including serum cholesterol concentration, uterine weight, eosinophil peroxidase activity, MCF-7 cell proliferation, and bone density.
(§2) Animals were dosed daily for 4 days. […] A blood sample was collected by cardiac puncture.
(§3) Data presented in Table 1 below show comparative results among control ovariectomized rats, rats treated with EE2, and rats treated with certain compounds of the present invention. […] This uterine response to estrogen is well recognized in the art.
(§4) The data presented in Table 1 reflect the response of 5 to 6 rats per treatment.

[2] = tested on: eosinophil peroxidase; assay: Uterine eosinophil peroxidase (EPO) assay in ovariectomized rats (four day dosing); type: in vivo, female Sprague Dawley rats; set-up: Uterine EPO (Vmax): unit not given here; settings: oral, OVX rats; for Uterine EPO (Vmax): daily for 4 days
Method: as §1, §2, §4

[3] = tested on: MCF-7 breast adenocarcinoma cells; assay: MCF-7 proliferation assay (tritiated thymidine); type: cell-based; settings: Homo sapiens, MCF7, 48 hours with drug, read-out: ED50 (the source's name)
Method: MCF-7 breast adenocarcinoma cells (ATCC HTB 22) were maintained in MEM (minimal essential medium, phenol red-free, Sigma, St. Louis, Mo.) supplemented with 10% fetal bovine serum (FBS) (V/V), L-glutamine (2 mM), sodium pyruvate (1 mM), HEPES {(N-[2-hydroxyethyl]piperazine-N'-[2-ethanesulfonic acid]10 mM}, non-essential amino acids and bovine insulin (1 μg/ml) (maintenance medium). Ten days prior to assay, MCF-7 cells were switched to maintenance medium supplemented with 10% dextrancoated charcoal stripped fetal bovine serum (DCC-FBS) assay medium) in place of 10% FBS to deplete internal stores of steroids. MCF-7 cells were removed from maintenance flasks using cell dissociation medium (Ca++/Mg++ free HBSS (phenol red-free) supplemented with 10 mM HEPES and 2 mM EDTA). Cells were washed twice with assay medium and adjusted to 80,000 cells/mi. Approximately […] (8,000 cells) were added to flat-bottom microculture wells (Costar 3596) and incubated at 37° C. in a 5% CO2 humidified incubator for 48 hours to allow for cell adherence and equilibration after transfer. Serial dilutions of drugs or DMSO as a diluent control were prepared in assay medium and […] to triplicate microcultures followed by 50 ml assay medium for a final volume of […]. After an additional 48 hours at 37° C. in a 5% CO2 humidified incubator, microcultures were pulsed with tritiated thymidine (1 uCi/well) for 4 hours. Cultures were terminated by freezing at -70° C. for 24 hours followed by thawing and harvesting of microcultures. Samples were counted by liquid scintillation. Results in Table 3 below show the ED50 for certain compounds of the present invention.

[4] = tested on: serum cholesterol; assay: Serum cholesterol in ovariectomized rats (post-menopausal rat model, four day dosing); type: in vivo, female Sprague Dawley rats; settings: oral; for Serum Cholesterol (% dec. OVX): daily for 4 days, decrease vs OVX control
Method: as §1, §2
Blood samples were allowed to clot at room temperature for 2 hours, and serum was obtained following centrifugation for 10 minutes at 3000 rpm. Serum cholesterol was determined using a Boshringer Mannheim Diagnostics high performance cholesterol assay. Briefly the cholesterol was oxidized to cholest-4-en-3-one and hydrogen peroxide. The hydrogen peroxide was then reacted with phenol and 4-aminophenazone in the presence of peroxidase to produce a p-quinone imine dye, which was read spectrophotemetrically at 500 nm. Cholesterol concentration was then calculated against a standard curve. The entire assay was automated using a Biomek Automated Workstation.
as §3, §4

[5] = tested on: tibia; assay: Bone density assay (35 day dosing, tibia, single photon absorptiometry); type: in vivo, female Sprague Dawley rats; settings: OVX rats, oral in 20% hydroxypropyl β-cyclodextrin, daily for 35 days
Method: Following the General Preparation procedure described above, the rats were treated daily for 35 days (6 rats per treatment group) and sacrificed by decapitation on the 36th day. The 35 day time period was sufficient to allow maximal effect on bone density, measured as described herein. At the time of sacrifice, the uteri were removed, dissected free of extraneous tissue, and the fluid contents were expelled before determination of wet weight in order to confirm estrogen deficiency associated with complete ovariectomy. […] The uteri were then placed in 10% neutral buffered formalin to allow for subsequent histological analysis. The right tibias were excised and scanned at the distal metaphysis 1 mm from the patellar groove with single photon absorptiometry. Results of the densitometer measurements represent a calculation of bone density as a function of the bone mineral content and bone width. In accordance with the procedures outlined above, compounds of the present invention and EE2 in 20% hydroxypropyl β-cyclodextrin were orally administered to test animals.

[6] = Rattus norvegicus, po, 96 h, daily for 4 days, increase vs OVX control, read-out: Uterine Weight (% inc. OVX)

Row | SMILES | change in vivo at 0.1 mg/kg [1, 6] | change in vivo at 1 mg/kg [1, 6] | change in vivo at 10 mg/kg [1, 6] | Uterine EPO (Vmax) ([2]; 0.1 mg/kg) | Uterine EPO (Vmax) ([2]; 1 mg/kg) | Uterine EPO (Vmax) ([2]; 10 mg/kg) | IC50 [3] | Serum Cholesterol (% dec. OVX) ([4]; 1 mg/kg) | Serum Cholesterol (% dec. OVX) ([4]; 10 mg/kg) | change in vivo at 0.01 mg/kg ([1]; Rattus norvegicus, po, 96 h, 0.01 mg/kg, daily for 4 days, increase vs OVX control, read-out: Uterine Weight (% inc. OVX)) | Uterine EPO (Vmax) ([2]; 0.01 mg/kg) | effect on bone loss / tibia density (in words) [5] | effect on serum cholesterol (in words) ([4]; OVX rats, 4 days, EE2 at 0.1 mg/Kg/day) | effect on uterine weight (in words) ([1]; OVX rats, oral, 4 days, EE2 at 0.1 mg/Kg/day) | eosinophil infiltration into the uterus (in words) ([2]; 4 days, by eosinophil peroxidase activity)
1 | CN(C)C(=O)COc1ccc(C(=O)c2c(-c3ccc(O)cc3)sc3cc(O)ccc23)cc1 [Compound 12] | -7.7% | 15.4% | 60.7% | 3.7 | 6.7 | 122.3 |  |  |  |  |  |  |  |  | 
2 | N#CCOc1ccc(C(=O)c2c(-c3ccc(O)cc3)sc3cc(O)ccc23)cc1 [Compound 14] | 18.8% | 14.6% | 125% | 3.3 | 2.4 | 145.8 | 0.05 nM |  |  |  |  |  |  |  | 
3 | O=C(c1ccc(OCC(=O)N2CCCC2)cc1)c1c(-c2ccc(O)cc2)sc2cc(O)ccc12 [Compound 8] |  |  |  |  |  |  | 10 nM | 69.6% and 39.4% | 64.5% | -22.9% | 3.5 |  |  |  | 
4 | O=C(c1ccc(OCC(=O)N2CCCCC2)cc1)c1c(-c2ccc(O)cc2)sc2cc(O)ccc12 [Compound 9] | -10% | 6.5% | 51.7% | 2.8 | 3.6 | 32 | 10 nM |  |  |  |  |  |  |  | 
5 | CCCCN(C)C(=O)COc1ccc(C(=O)c2c(-c3ccc(O)cc3)sc3cc(O)ccc23)cc1 [Compound 10] | 1.5% | -6.7% | 38% | 4.3 | 3.1 | 17.0 | 50 nM |  |  |  |  |  |  |  | 
6 | CC(C)(C)C(=O)N1CCCCC1COc1ccc(C(=O)c2c(-c3ccc(O)cc3)sc3cc(O)ccc23)cc1 (stereo not drawn) [Compound 22] | 1.9% | 19.6% | 46.9% | 3.5 | 20.0 | 69.5 | 0.01 nM |  |  |  |  |  |  |  | 
7 | O=C(NCCOc1ccc(C(=O)c2c(-c3ccc(O)cc3)sc3cc(O)ccc23)cc1)NC1CCCCC1 [Compound 20] | -29.9% | -27.4% | -32.7% | 3.0 | 2.5 | 2.9 | 0.1 nM |  |  |  |  |  |  |  | 
8 | O=C(c1ccc(OCCNC(=O)C2CCCCC2)cc1)c1c(-c2ccc(O)cc2)sc2cc(O)ccc12 [Compound 21] | -5.5% | -11.5% | 8.6% | 3.1 | 2.6 | 2.4 |  |  |  |  |  |  |  |  | 
9 | O=C(c1ccc(OCCN2C(=O)CCC2=O)cc1)c1c(-c2ccc(O)cc2)sc2cc(O)ccc12 [Compound 13] | 22.2% | 7.2% | -4% | 1.9 | 1.7 | 2.5 | > 1000 nM |  |  |  |  |  |  |  | 
10 | CC(C#N)Oc1ccc(C(=O)c2c(-c3ccc(O)cc3)sc3cc(O)ccc23)cc1 (stereo not drawn) [Compound 16] | 0.7% | 27.4% | 99.2% | 2.3 | 3.9 |  | 0.02 nM |  |  |  |  |  |  |  | 
11 | CC(=O)N(CCOc1ccc(C(=O)c2c(-c3ccc(O)cc3)sc3cc(O)ccc23)cc1)C1CCCCC1 [Compound 19] | 7% | -25.5% | 47% | 5.4 | 3.7 | 29.3 | 0.1 nM |  |  |  |  |  |  |  | 
12 | O=C(c1ccc(OCCN2CCCC2=O)cc1)c1c(-c2ccc(O)cc2)sc2cc(O)ccc12 [Compound 6] | -9% | 15.4% | 40.3% | 3.6 | 1.4 | 3.7 |  |  |  |  |  |  |  |  | 
13 | CC(=O)NCCOc1ccc(C(=O)c2c(-c3ccc(O)cc3)sc3cc(O)ccc23)cc1 [Compound 26] | -17.5% | -28.8% | 25.8% | 1.3 | 0.7 |  |  |  |  |  |  |  |  |  | 
14 | COc1ccc(-c2sc3cc(OC)ccc3c2C(=O)c2ccc(OCC(=O)N3CCCCC3)cc2)cc1 [Compound 7] | -0.5% | -16.2% | 8.4% | 5.2 | 3.7 | 4.7 | > 1000 nM |  |  |  |  |  |  |  | 
15 | O=C(NCCOc1ccc(C(=O)c2c(-c3ccc(O)cc3)sc3cc(O)ccc23)cc1)c1ccccc1 [Compound 18] | 16.1% | 25.7% | 12.6% | 3.2 | 3.6 | 3.6 | 500 nM |  |  |  |  |  |  |  | 
16 | C#C[C@]1(O)CC[C@H]2[C@@H]3CCc4cc(O)ccc4[C@H]3CC[C@@]21C [ethynyl estradiol, 17α-Ethynyl estradiol, reference compound] | 235% |  |  | 120.0 |  |  |  |  |  |  |  | prevented this loss | caused a decrease in serum cholesterol | substantially greater than the uterine weight of ovariectomized test animals | caused a substantial, expected increase in eosinophil infiltration
17 | CC(C)(C)C(=O)N1CCC(Oc2ccc(C(=O)c3c(-c4ccc(O)cc4)sc4cc(O)ccc34)cc2)CC1 [Compound 23] | -4.3% | 0.8% | 22.3% | 1.6 | 3.8 | 6.7 | 4 nM |  |  |  |  |  |  |  | 
18 | O=C(c1ccc(OCCN2CCCCC2=O)cc1)c1c(-c2ccc(O)cc2)sc2cc(O)ccc12 [Compound 3] | 13.3% | 17.8% | 57.6% | 8.0 | 7.8 | 8.9 | 600 nM |  |  |  |  |  |  |  | 
